Results reported in publication PMC6199744, “Development of Chemical Proteomics for the Folateome and Analysis of the Kinetoplastid Folateome” (ACS Infectious Diseases, 2018).
Where “and” joins values, the source holds several entries; their conditions need not be identical. Identical values can stand only once. Like-named read-outs stand apart in the source and are kept apart here.

Test system: L. major lysate proteins
Experiment: Multitargeted bead mixture chemoproteomics, single concentration competition, proteome-wide
Assay type: binding
Details: for fold change: vehicle control = 1

## NCCOCCOCC(=O)Nc1nc2ncc(CNc3ccc(C(=O)NC(CCC(=O)O)C(=O)O)cc3)nc2c(=O)[nH]1 (stereo not drawn) [compound 6]
  fold change vs vehicle control: 1.04 and 1.02
Bead mixture, L. major lysate
  protein inhibition, any captured protein (Figure 8): no protein inhibition >30%
Protein CLI00016468.1 KINETOPLASTID MEMBRANE PROTEIN-11
  fold change vs vehicle control: 0.79
Protein LINJ.03.0240 RIBOSOMAL PROTEIN L38, PUTATIVE
  fold change vs vehicle control: 1.35
Protein LINJ.11.0780 40S RIBOSOMAL PROTEIN S21, PUTATIVE
  fold change vs vehicle control: 1.03
Protein LINJ.11.0960 40S RIBOSOMAL PROTEIN S5
  fold change: 1.03
Protein LINJ.13.0990 PROTEASOME REGULATORY ATPASE SUBUNIT 2, PUTATIVE
  fold change vs vehicle control: 0.92
Protein LINJ.15.0330 RIBONUCLEOPROTEIN P18, MITOCHONDRIAL PRECURSOR, PUTATIVE
  fold change vs vehicle control: 0.98
Protein LINJ.19.0090 FIBRILLARIN, PUTATIVE
  fold change: 0.87
Protein LINJ.23.0860, 3-KETOACYL-COA THIOLASE, PUTATIVE
  fold change relative to vehicle control: 1.25
Protein LINJ.24.2300, 60S RIBOSOMAL PROTEIN L12, PUTATIVE
  fold change relative to vehicle control: 1
Protein LINJ.25.2230 SUCCINYL-COA […] SUBUNIT, PUTATIVE
  fold change vs vehicle control: 1.06
Protein LINJ.26.1630 40S RIBOSOMAL PROTEIN S33, PUTATIVE
  fold change vs vehicle control: 1.13
Protein LINJ.28.1100 RIBOSOMAL PROTEIN S20, PUTATIVE
  fold change vs vehicle control: 0.92
Protein LINJ.28.1940, REPLICATION FACTOR A, 51KDA SUBUNIT, PUTATIVE
  fold change relative to vehicle control: 0.96
Protein LINJ.28.2280 DYNEIN LIGHT CHAIN LC6, FLAGELLAR OUTER ARM, PUTATIVE
  fold change: 0.7
Protein LINJ.28.2870 PROTEIN PHOSPHATASE 4 CATALYTIC SUBUNIT, PUTATIVE
  fold change: 0.82
Protein LINJ.31.1600, […] OXIDASE VIII (COX VIII), PUTATIVE
  fold change relative to vehicle control: 0.8
Protein LINJ.33.1730, CYCLOPHILIN 4, PUTATIVE
  fold change relative to vehicle control: 1.42
Protein LINJ.34.0670 […]-ATP-ASE SUBUNIT 11, PUTATIVE,19S […]
  fold change vs vehicle control: 1.08
Protein LINJ.36.0780 PROTEIN KINASE, PUTATIVE,MITOGEN-ACTIVATED PROTEIN KINASE, PUTATIVE
  fold change vs vehicle control: 1.16
Protein LINJ.36.3960, BASIC TRA[…] 3A, PUTATIVE
  fold change relative to vehicle control: 1.37
Protein LINJ.36.4070 EUKARYOTIC TRANSLATION INITIATION FACTOR 3 SUBUNIT, PUTATIVE
  fold change vs vehicle control: 0.98
Protein LINJ.36.4080, HY[…], CONSERVED
  fold change relative to vehicle control: 1.12
Protein LINJ.36.4180 HS1VU COMPLEX P[…]-LIKE
  fold change: 1.02
Protein LINJ.[…] LONG-CHAIN-FATTY-ACID-COA LIGASE, PUTATIVE
  fold change vs vehicle control: 0.98
Protein LMJF.01.0570 TRIC[…], PUTATIVE
  fold change: 0.96
Protein LMJF.03.0200, DELTA-1-PYRROLINE-5-CARBOXYLATE DEHYDROGENASE, PUTATIVE
  fold change relative to vehicle control: 1.14
Protein LMJF.03.0230 LONG CHAIN FATTY ACYL COA SYNTHETASE, PUTATIVE
  fold change: 1
Protein LMJF.03.0980 ELONGATION INITIATION FACTOR 2 ALPHA SUBUNIT, PUTATIVE
  fold change: 0.99
Protein LMJF.04.0630 HY[…], CONSERVED
  fold change vs vehicle control: 1.04
Protein LMJF.04.1230 actin
  fold change vs vehicle control: 1.07
Protein LMJF.05.0100 PHOSPHOPROTEIN PHOSPHATASE, PUTATIVE
  fold change: 0.99
Protein LMJF.05.0280 PROTEIN TYROSINE PHOSPHATASE, PUTATIVE
  fold change: 0.92
Protein LMJF.05.0510 ATPASE ALPHA SUBUNIT
  fold change: 1.08
Protein LMJF.05.1040 STOMATIN-LIKE PROTEIN
  fold change: 0.97
Protein LMJF.06.0650 LANOSTEROL SYNTHASE, PUTATIVE
  fold change: 0.97
Protein LMJF.07.0700 TOPOISOMERASE-RELATED FUNCTION PROTEIN-LIKE PROTEIN
  fold change vs vehicle control: 0.83
Protein LMJF.07.1000 RNA BINDING PROTEIN-LIKE PROTEIN
  fold change: 0.9
Protein LMJF.07.1140, PEPTIDE […] REDUCTASE-LIKE
  fold change relative to vehicle control: 1.14
Protein LMJF.08.0510 RIBOSE-PHOSPHATE PYROPHOSPHOKINASE, PUTATIVE
  fold change: 0.97
Protein LMJF.08.0550 T[…]-LIKE PROTEIN
  fold change vs vehicle control: 1.05
Protein LMJF.08.1030, cathepsin L-like protease
  fold change relative to vehicle control: 0.94
Protein LMJF.08.1100 HY[…], CONSERVED
  fold change vs vehicle control: 1.01
Protein LMJF.09.1010 HYPOTHETICAL PROTEIN, CONSERVED
  fold change vs vehicle control: 0.88
Protein LMJF.09.1120, MIT[…] BINDING PROTEIN 2,MRP2, GBP25
  fold change relative to vehicle control: 1.13
Protein LMJF.09.1260 HYPOTHETICAL PROTEIN, CONSERVED
  fold change vs vehicle control: 0.98
Protein LMJF.10.0210 NUCLEOLAR PROTEIN, PUTATIVE
  fold change: 1.03
Protein LMJF.10.0310 PROTEIN TRANSPORT PROTEIN SEC23, PUTATIVE
  fold change vs vehicle control: 0.91
Protein LMJF.11.0590 3-[…]-COA C[…] SUBUNIT, PUTATIVE
  fold change: 0.92
Protein LMJF.11.0630, AMINOPEPTIDASE, PUTATIVE,METALLO-PEPTIDASE, CLAN MF, FAMILY M17
  fold change relative to vehicle control: 1.13
Protein LMJF.11.1050 PRETRA[…], ALPHA SUBUNIT, PUTATIVE,SEC61-LIKE (PRETRA[…]) PROTEIN, PUTATIVE
  fold change vs vehicle control: 1.04
Protein LMJF.11.1160 PROTEIN TRANSPORT PROTEIN SEC31, PUTATIVE
  fold change: 0.87
Protein LMJF.12.0030 PROTEASOME BETA-1 SUBUNIT, PUTATIVE
  fold change: 0.9
Protein LMJF.12.0210 […] […]1L8 3, PUTATIVE
  fold change vs vehicle control: 0.98
Protein LMJF.12.0530, GLUCOSE-6-PHOSPHATE ISOMERASE
  fold change relative to vehicle control: 1.41
Protein LMJF.12.0630 ALANINE AMINOTRANSFERASE
  fold change: 0.95
Protein LMJF.13.1230 40S RIBOSOMAL PROTEIN S4, PUTATIVE
  fold change vs vehicle control: 1.22
Protein LMJF.14.0310 PROTEASOME ALPHA 3 SUBUNIT, PUTATIVE
  fold change vs vehicle control: 0.96
Protein LMJF.14.0660 FATTY ACID ELONGASE, PUTATIVE
  fold change: 1.14
Protein LMJF.14.0670 FATTY ACID ELONGASE, PUTATIVE
  fold change: 0.98
Protein LMJF.14.0680 FATTY ACID ELONGASE, PUTATIVE
  fold change vs vehicle control: 1.13
Protein LMJF.14.0990 ADP/ATP MIT[…]-LIKE PROTEIN
  fold change: 1.32
Protein LMJF.14.1160 ENOLASE
  fold change vs vehicle control: 1.1
Protein LMJF.14.1440 HYPOTHETICAL PROTEIN, CONSERVED (cytoskeleton associated protein, putative)
  fold change: 0.82
Protein LMJF.15.0040 HYPOTHETICAL PROTEIN, CONSERVED (Possible lysine decarboxylase, putative)
  fold change: 0.84
